Consider three compounds from publication PMC11555678, “Improved Broad Spectrum Antifungal Drug Synergies with Cryptomycin, a Cdc50-Inspired Antifungal Peptide” (ACS Infectious Diseases, 2024).

Test [1] has as its system C. glabrata 2001. Briefly: microbe, parasite or virus in culture. The test is classed as cell-based, Candida glabrata. As to the method: (§1) All microdilution assays with fungi were carried out in accordance with CLSI protocols from M27 for yeasts and M38 for filamentous fungi, respectively, unless otherwise specified.[64],[65] Briefly, 96-well plates were charged with RPMI1640 media, with operating volume in the first column, 200 μL, and half operating volume, 100 μL, in the remaining wells. Drug stock solution in DMSO was aliquoted into the first well in each row. Half of the volume in the dosed well was serially diluted 2-fold until column 11. Column 11 was used as the negative growth control, and column 12 was used as the positive growth control. ON yeast cultures in YPD were washed twice in DD-H2O, resuspended in PBS, and adjusted to 5000 cfu/mL in RPMI. The 96-well plate was inoculated with 100 μL aliquots of cell suspension per well. Plates were incubated at 37 °C for 2 days.

In test [2] the test system is C. glabrata FKS1-S629P. Briefly: microbe, parasite or virus in culture. The format is cell-based, Candida glabrata. The conditions noted are these: 48 h. On the procedure:
as §1

For test [3], the system named is C. glabrata FKS2-S663P. In words: microbe, parasite or virus in culture. Conditions: 48 h. The format is cell-based, Candida glabrata. As to the method: as §1
Test [4] relates to C. auris B11245. Briefly: microbe, parasite or virus in culture. The test is classed as cell-based, Candida auris. On the procedure: as §1
The subject of test [5] is Cn H99. In words: microbe, parasite or virus in culture. Conditions: for MIC: 37 °C, 48 h. The format is cell-based, Cryptococcus neoformans. On the procedure: (§2) Previous studies have shown that modifying microbiological media with salts such as CaCl2 can have a drastic effect on the growth of fungi and their responses to antifungals.[19],[35] In the case of CaCl2, the divalent cation, Ca^2+, is involved in fungal cell stress response. To understand how the peptide activity may involve calcium and stress response, the MICs of KKOO, KKOO-NH2, FLC, and CAS were assessed as a function of the calcium concentration in liquid YPD media. It was observed that calcium enrichment completely desensitized the wild-type strain to KKOO and KKOO-NH2, Tables 7 and 8, respectively. Effects of calcium enrichment on the susceptibility of Cryptococcus to CAS similar to literature values were recorded, Supporting Information, Table S7.[35]
(§3) In order to control for the effects of enriching YPD with a divalent cation, MICs and ROS production were also measured as a function of the MgCl2 supplement at the same millimolar concentrations of cation as in the CaCl2-modified experiments. […] No peptide susceptibility changes were observed against Cn cdc50Δ in magnesium-enriched media, Table S9. ROS production in H99 induced by peptide exposure was inhibited after 30 min of treatment in the magnesium-enriched condition, similar to the levels observed in the calcium-enriched media at 16 μg/mL KKOO-NH2, Figure S1. […] The link between peptide activity and calcium homeostasis may be vital in understanding precisely how the peptide kills fungal cells and requires more research to elucidate.
as §1

Test [6] has as its system Cn cdc50Δ. Briefly: microbe, parasite or virus in culture. The format is cell-based, Cryptococcus neoformans. The conditions noted are these: for MIC: 37 °C, 48 h. As to the method: as §2, §3, §1
In test [7] the test system is Cn Crm1-oe. Briefly: microbe, parasite or virus in culture. The format is cell-based, Cryptococcus neoformans. Conditions: YPD + 0 mM Ca2+, 37 °C, 48 h. As to the method: as §2, §1
Test [8] has as its system Cn apt1Δ. Briefly: microbe, parasite or virus in culture. The format is cell-based, Cryptococcus neoformans. The conditions noted are these: for MIC: 37 °C, 48 h. On the procedure: as §2, §1
Test [9] relates to Cn crm1Δ. Briefly: microbe, parasite or virus in culture. The format is cell-based, Cryptococcus neoformans. The conditions noted are these: YPD + 0 mM Ca2+, 37 °C, 48 h. On the procedure: as §2, §1
Test [10] has as its system C. neoformans H99. The test is classed as cell-based, Cryptococcus neoformans. The conditions noted are these: for MIC of antifungal in combination with (FITC)KKOO / MIC of antifungal in combination with KKOO / MIC of antifungal in combination with KKOO-NH2: RPMI1640, 37 °C; for MIC of antifungal in combination with KKOO / MIC of antifungal in combination with KKOO-NH2: 48 h. As to the method: as §1, with “Plates were incubated at 37 °C for 2 days.” left out
To assess drug synergy, the initial media charged to the plate contained the peptide at twice the final operating concentration; the remaining processing steps were identical to the MIC experiment. Upon addition of 100 μL of inoculant, the final operating concentration was achieved. Control MIC plates were prepared alongside drug synergy plates to account for the day-to-day variability in any individual MIC. FIC index is computed using eq 1. All MIC assays and drug synergy assays were completed with two technical replicates per 96-well plate and a minimum of two biological replicates per drug combination. If a difference in MIC between the two technical replicates on the plate were observed, only the higher concentration was reported as the MIC to reduce the possibility of type 1 error (false positive) [drawing 1] 1

Setting [11] is: compound alone, RPMI1640, 37 °C.
The mark [12] stands for this setting: Nakaseomyces glabratus, 2001, compound alone, RPMI1640, 37 °C, 48 h, read-out: MIC.
Where [13] appears, read: Nakaseomyces glabratus, FKS1S629P.
The mark [14] stands for this setting: Nakaseomyces glabratus, FKS2S663P.
Where [15] appears, read: Candidozyma auris, B11245, compound alone, RPMI1640, 37 °C, 48 h, * = paradoxical growth observed (CAS), read-out: MIC.

Converted amounts (≈) assume the structure as drawn. Read-outs that look alike come from different tables or passages of the source. Square brackets hold non-standard residues; d marks the D form. Peptide text beside a SMILES is read from it. * marks the point of attachment. Myristoyl = CCCCCCCCCCCCCC(=O)*; Orn = NCCC[C@H](N)C(=O)O Some results are limits rather than exact numbers.

For `CCCCCCCCCCCCCC(=O)N[C@@H](Cc1c[nH]c2ccccc12)C(=O)NCC(=O)NCC(=O)N[C@H](C(=O)N[C@@H](CCCN)C(=O)N[C@@H](CCCN)C(=O)N[C@@H](CC(N)=O)C(=O)N[C@@H](Cc1ccc(O)cc1)C(=O)N[C@@H](C)C(N)=O)[C@@H](C)CC` [KKOO-NH2] (Myristoyl-WGGI[Orn][Orn]NYA-NH2), the MIC came out at 8 µg/mL (≈ 6.57 µM) in [1] (2001, 48 h); 8 µg/mL (≈ 6.57 µM) in test [2] (setting [11]); 8 µg/mL (≈ 6.57 µM) in test [3] (setting [11]); 16 µg/mL (≈ 13.1 µM) in test [4] (B11245, 48 h); 8 µg/mL in test [5] (YPD + 0 mM Ca2+); 8 µg/mL in test [5] (YPD + 0 mM Mg2+). Moreover, the MIC in test [5] (YPD + 2.5 mM Ca2+) was 128 µg/mL; in test [5] (YPD + 2.5 mM Mg2+), 8 µg/mL; in test [5] (YPD + 5 mM Ca2+), >128 µg/mL; in test [5] (YPD + 5 mM Mg2+) it was 16 µg/mL; in [5] (YPD + 10 mM Ca2+), >128 µg/mL; in test [5] (YPD + 10 mM Mg2+) it was 16 µg/mL. The MIC in [5] (YPD + 20 mM Ca2+) is >128 µg/mL; in test [5] (YPD + 20 mM Mg2+), 32 µg/mL; in [6] (YPD + 0 mM Ca2+) it was 2 µg/mL; in [6] (YPD + 0 mM Mg2+, unit inferred), 4 µg/mL; in test [6] (YPD + 2.5 mM Ca2+) it was 4 µg/mL; in test [6] (YPD + 2.5 mM Mg2+, unit inferred), 4 µg/mL. Also, the MIC in test [6] (YPD + 5 mM Ca2+) amounted to 8 µg/mL; in test [6] (YPD + 5 mM Mg2+, unit inferred), 4 µg/mL; in [6] (YPD + 10 mM Ca2+) it was 8 µg/mL; in [6] (YPD + 10 mM Mg2+, unit inferred) it was 4 µg/mL; in test [6] (YPD + 20 mM Ca2+), 4 µg/mL; in [6] (YPD + 20 mM Mg2+, unit inferred) it was 4 µg/mL. In addition, the MIC is 4 µg/mL in [7]; 4 µg/mL in test [8] (YPD + 0 mM Ca2+); 16 µg/mL in test [8] (YPD + 2.5 mM Ca2+); 64 µg/mL in [8] (YPD + 5 mM Ca2+); 64 µg/mL in test [8] (YPD + 10 mM Ca2+); 4 µg/mL in test [9]. Further, the “MIC (SAR screen peptides)” value in test [1] (Table S1, unit and conditions not given (MICs elsewhere in μg/mL)) came to 8. Besides, the “increase of MIC” value stood at 16 fold in test [5] (YPD +0 to +2.5 mM CaCl2), 4 fold in test [5] (YPD +0 to +20 mM MgCl2) and 32 fold in test [8] (YPD +0 to +20 mM CaCl2). In addition, the “increase of MIC (largest deviation)” value in test [6] (YPD +0 to +5 mM CaCl2) was 4 fold.
For the compound `C[C@@H]1[C@H](O)[C@@H](C)/C=C/C=C/C=C/C=C/C=C/C=C/C=C/[C@H](O[C@@H]2O[C@H](C)[C@@H](O)[C@H](N)[C@@H]2O)C[C@@H]2O[C@](O)(C[C@@H](O)C[C@@H](O)[C@H](O)CC[C@@H](O)C[C@@H](O)CC(=O)O[C@H]1C)C[C@H](O)[C@H]2C(=O)O` [AMB, amphotericin B], the MIC in [1] (setting [12]), in test [2] (setting [13]), in test [3] (setting [14]) and in [4] (setting [15]) was 1 µg/mL (≈ 1.08 µM) throughout. Further, the “MIC of antifungal in combination with (FITC)KKOO” value in test [10] (+0 μg/mL (FITC)KKOO) amounted to 0.5 µg/mL; in test [10] (+4 μg/mL (FITC)KKOO) it was 0.125 µg/mL; in [10] (+8 μg/mL (FITC)KKOO) it was 0.062 µg/mL. The “MIC of antifungal in combination with KKOO” value in test [10] (+0 μg/mL KKOO (control)) came out at 0.5 µg/mL; in test [10] (+1 μg/mL KKOO) it was 0.25 µg/mL; in test [10] (+2 μg/mL KKOO), 0.062 µg/mL; in [10] (+4 μg/mL KKOO) it was 0.062 µg/mL; in test [10] (+8 μg/mL KKOO) it was 0.062 µg/mL. Moreover, the “MIC of antifungal in combination with KKOO-NH2” value is 0.5 µg/mL in test [10] (+0 μg/mL KKOO-NH2 (control)), 0.062 µg/mL in test [10] (+1 μg/mL KKOO-NH2), 0.062 µg/mL in [10] (+2 μg/mL KKOO-NH2) and 0.031 µg/mL in test [10] (+4 μg/mL KKOO-NH2). The “reduction of MIC of antifungal” value in [10] (in the presence of 1 μg/mL KKOO-NH2, 48 h) was 8 fold; in test [10] (in the presence of 4 μg/mL (FITC)KKOO), 4 fold.
Turning to `CCC(C)n1ncn(-c2ccc(N3CCN(c4ccc(OCC5COC(Cn6cncn6)(c6ccc(Cl)cc6Cl)O5)cc4)CC3)cc2)c1=O` (stereo not shown) [ITR, itraconazole], the MIC in test [1] (setting [12]) came out at 0.5 µg/mL (≈ 0.709 µM); in [2] (setting [13]), 0.125 µg/mL (≈ 0.177 µM); in test [3] (setting [14]) it was 0.125 µg/mL (≈ 0.177 µM); in test [4] (setting [15]), 0.5 µg/mL (≈ 0.709 µM). Besides, the “MIC of antifungal in combination with (FITC)KKOO” value in test [10] (+0 μg/mL (FITC)KKOO) was found to be 0.125 µg/mL; in test [10] (+4 μg/mL (FITC)KKOO), 0.062 µg/mL; in test [10] (+8 μg/mL (FITC)KKOO) it was 0.031 µg/mL. Besides, the “MIC of antifungal in combination with KKOO” value in [10] (+0 μg/mL KKOO (control)) was 0.125 µg/mL; in [10] (+1 μg/mL KKOO) it was 0.062 µg/mL; in test [10] (+2 μg/mL KKOO), 0.016 µg/mL; in test [10] (+4 μg/mL KKOO), 0.016 µg/mL; in [10] (+8 μg/mL KKOO), 0.008 µg/mL. The “MIC of antifungal in combination with KKOO-NH2” value was 0.125 µg/mL in [10] (+0 μg/mL KKOO-NH2 (control)), 0.031 µg/mL in [10] (+1 μg/mL KKOO-NH2), 0.016 µg/mL in test [10] (+2 μg/mL KKOO-NH2) and 0.008 µg/mL in test [10] (+4 μg/mL KKOO-NH2). Further, in [10] (in the presence of 2 μg/mL KKOO-NH2, 48 h), the “reduction of MIC of antifungal” value is reported as 8 fold.
